The structures appear in SMILES notation.

One may read the IC50 as the concentration needed to halve the response being measured. Low values mean inhibition by little substance, high ones a need for much substance.

The test deals with Human thrombin (Homo sapiens (Human), UniProt P00734). Put plainly: Thrombin protease activity inhibition assay (chromogenic substrate S-2238). The conditions noted are these: 3 nM thrombin, 125 μM S-2238, 10 min pre-incubation, RT. Type of test: biochemical. As to the method: The thrombin activity reported herein (e.g., Table A) was obtained as follows. […] Thrombin was assayed in buffer containing 0.05 M Tris (pH 7.4), 0.015 M NaCl and 0.01% PEG-8000. The final concentration of enzyme used was 3 nM thrombin. […] All assays were performed in 96-well microtiter plates at room temperature (RT). […] Inhibitor IC50 values were determined by adding test compound as ten point, three-fold serial dilutions in buffer solution, as known in the art. The plate was read at 10 minutes after substrate addition. The IC50 was calculated by plotting the percent (%) inhibition against compound concentration and fitting the data to a constrained four parameter sigmoidal curve, as known in the art.
Consider `O=C(c1cccc2c1OCCO2)n1nc(-c2ccc[nH]c2=O)cc1NCc1ccc(Cl)s1` [Cmpd 108, 3-(5-[(5-chlorothiophen-2-yl)methyl]amino-1-[(2,3-dihydro-1,4-benzodioxin-5-yl)carbonyl]-1H-pyrazol-3-yl)-1,2-dihydropyridin-2-one], for which the IC50 is under 100 nM.
Turning to `O=C(c1cccc2c1OCCO2)n1nc(-c2cccn(Cc3ccco3)c2=O)cc1NCc1ccc(Cl)s1` [Cmpd 110, 3-(5-[(5-chlorothiophen-2-yl)methyl]amino-1-[(2,3-dihydro-1,4-benzodioxin-5-yl)carbonyl]-1H-pyrazol-3-yl)-1-(furan-2-ylmethyl)-1,2-dihydropyridin-2-one], the IC50 was under 100 nM.
To `O=C(c1cccc2c1OCCO2)n1nc(-c2cccn(Cc3ccoc3)c2=O)cc1NCc1ccc(Cl)s1` [Cmpd 111, 3-(5-[(5-chlorothiophen-2-yl)methyl]amino-1-[(2,3-dihydro-1,4-benzodioxin-5-yl)carbonyl]-1H-pyrazol-3-yl)-1-(furan-3-ylmethyl)-1,2-dihydropyridin-2-one] belongs under 100 nM; to `O=C(c1cccc2c1OCCO2)n1nc(-c2cccn(Cc3cccnn3)c2=O)cc1NCc1ccc(Cl)s1` [Cmpd 112, 3-(5-[(5-chlorothiophen-2-yl)methyl]amino-1-[(2,3-dihydro-1,4-benzodioxin-5-yl)carbonyl]-1H-pyrazol-3-yl)-1-(pyridazin-3-ylmethyl)-1,2-dihydropyridin-2-one], under 100 nM; to `O=C(c1cccc2c1OCCO2)n1nc(-c2cccn(Cc3cccnc3)c2=O)cc1NCc1ccc(Cl)s1` [Cmpd 114, 3-(5-[(5-chlorothiophen-2-yl)methyl]amino-1-[(2,3-dihydro-1,4-benzodioxin-5-yl)carbonyl]-1H-pyrazol-3-yl)-1-(pyridin-3-ylmethyl)-1,2-dihydropyridin-2-one], under 100 nM.
In the case of `O=C(c1cccc2c1OCCO2)n1nc(-c2cccn(Cc3ccncc3)c2=O)cc1NCc1ccc(Cl)s1` [Cmpd 115, 3-(5-[(5-chlorothiophen-2-yl)methyl]amino-1-[(2,3-dihydro-1,4-benzodioxin-5-yl)carbonyl]-1H-pyrazol-3-yl)-1-(pyridin-4-ylmethyl)-1,2-dihydropyridin-2-one], the IC50 was under 100 nM.
To `O=C(c1cccc2c1OCCO2)n1nc(-c2cccn(Cc3ccsc3)c2=O)cc1NCc1ccc(Cl)s1` [Cmpd 118, 3-(5-[(5-chlorothiophen-2-yl)methyl]amino-1-[(2,3-dihydro-1,4-benzodioxin-5-yl)carbonyl]-1H-pyrazol-3-yl)-1-(thiophen-3-ylmethyl)-1,2-dihydropyridin-2-one] belongs under 100 nM; to `O=C(c1cccc2c1OCCO2)n1nc(-c2cccn(CCN3CCOCC3)c2=O)cc1NCc1ccc(Cl)s1` [Cmpd 119, 3-(5-[(5-chlorothiophen-2-yl)methyl]amino-1-[(2,3-dihydro-1,4-benzodioxin-5-yl)carbonyl]-1H-pyrazol-3-yl)-1-[2-(morpholin-4-yl)ethyl]-1,2-dihydropyridin-2-one], under 100 nM.
`Cn1cccc(-c2cc(NCc3ccc(Cl)s3)n(C(=O)c3cccc4c3OCCO4)n2)c1=O` [Cmpd 120, 3-(5-[(5-chlorothiophen-2-yl)methyl]amino-1-[(2,3-dihydro-1,4-benzodioxin-5-yl)carbonyl]-1H-pyrazol-3-yl)-1-methyl-1,2-dihydropyridin-2-one] gave an IC50 of under 100 nM.
`COc1ccc(C(=O)n2nc(-c3ccc[nH]c3=O)cc2NCc2ccc(Cl)s2)c(OC)c1` [Cmpd 121, 3-(5-[(5-chlorothiophen-2-yl)methyl]amino-1-[(2,4-dimethoxyphenyl)carbonyl]-1H-pyrazol-3-yl)-1,2-dihydropyridin-2-one]: the IC50 was under 100 nM.
The result for `COc1ccc(C(=O)n2nc(-c3cccn(Cc4cccnn4)c3=O)cc2NCc2ccc(Cl)s2)c(OC)c1` [Cmpd 124, 3-(5-[(5-chlorothiophen-2-yl)methyl]amino-1-[(2,4-dimethoxyphenyl)carbonyl]-1H-pyrazol-3-yl)-1-(pyridazin-3-ylmethyl)-1,2-dihydropyridin-2-one] reads under 100 nM; that for `COc1ccc(C(=O)n2nc(-c3cccn(Cc4ccncc4)c3=O)cc2NCc2ccc(Cl)s2)c(OC)c1` [Cmpd 127, 3-(5-[(5-chlorothiophen-2-yl)methyl]amino-1-[(2,4-dimethoxyphenyl)carbonyl]-1H-pyrazol-3-yl)-1-(pyridin-4-ylmethyl)-1,2-dihydropyridin-2-one], under 100 nM.
Compound `COc1ccc(C(=O)n2nc(-c3cccn(Cc4ncccn4)c3=O)cc2NCc2ccc(Cl)s2)c(OC)c1` [Cmpd 128, 3-(5-[(5-chlorothiophen-2-yl)methyl]amino-1-[(2,4-dimethoxyphenyl)carbonyl]-1H-pyrazol-3-yl)-1-(pyrimidin-2-ylmethyl)-1,2-dihydropyridin-2-one] came in with an IC50 of over 100000 nM.
`COc1ccc(C(=O)n2nc(-c3cccn(Cc4cccs4)c3=O)cc2NCc2ccc(Cl)s2)c(OC)c1` [Cmpd 129, 3-(5-[(5-chlorothiophen-2-yl)methyl]amino-1-[(2,4-dimethoxyphenyl)carbonyl]-1H-pyrazol-3-yl)-1-(thiophen-2-ylmethyl)-1,2-dihydropyridin-2-one] displayed a half-maximal inhibitory concentration (IC50) of under 100 nM.
`COc1ccc(C(=O)n2nc(-c3cccn(Cc4ccsc4)c3=O)cc2NCc2ccc(Cl)s2)c(OC)c1` [Cmpd 130, 3-(5-[(5-chlorothiophen-2-yl)methyl]amino-1-[(2,4-dimethoxyphenyl)carbonyl]-1H-pyrazol-3-yl)-1-(thiophen-3-ylmethyl)-1,2-dihydropyridin-2-one] came in with an IC50 of under 100 nM.
As to `COCCn1cccc(-c2cc(NCc3ccc(Cl)s3)n(C(=O)c3ccccc3OC)n2)c1=O` [Cmpd 133, 3-(5-[(5-chlorothiophen-2-yl)methyl]amino-1-[(2-methoxyphenyl)carbonyl]-1H-pyrazol-3-yl)-1-(2-methoxyethyl)-1,2-dihydropyridin-2-one], the IC50 was under 100 nM.
In turn, `COc1ccccc1C(=O)n1nc(-c2cccn(CCc3ccccc3)c2=O)cc1NCc1ccc(Cl)s1` [Cmpd 134, 3-(5-[(5-chlorothiophen-2-yl)methyl]amino-1-[(2-methoxyphenyl)carbonyl]-1H-pyrazol-3-yl)-1-(2-phenylethyl)-1,2-dihydropyridin-2-one] had an IC50 of under 100 nM.
`COc1ccccc1C(=O)n1nc(-c2cccn(Cc3ccco3)c2=O)cc1NCc1ccc(Cl)s1` [Cmpd 135, 3-(5-[(5-chlorothiophen-2-yl)methyl]amino-1-[(2-methoxyphenyl)carbonyl]-1H-pyrazol-3-yl)-1-(furan-2-ylmethyl)-1,2-dihydropyridin-2-one] came in with an IC50 of under 100 nM.
Turning to `COc1ccccc1C(=O)n1nc(-c2cccn(Cc3ccoc3)c2=O)cc1NCc1ccc(Cl)s1` [Cmpd 136, 3-(5-[(5-chlorothiophen-2-yl)methyl]amino-1-[(2-methoxyphenyl)carbonyl]-1H-pyrazol-3-yl)-1-(furan-3-ylmethyl)-1,2-dihydropyridin-2-one], the IC50 is under 100 nM.
As for `COc1ccccc1C(=O)n1nc(-c2cccn(Cc3ccc4ccccc4c3)c2=O)cc1NCc1ccc(Cl)s1` [Cmpd 137, 3-(5-[(5-chlorothiophen-2-yl)methyl]amino-1-[(2-methoxyphenyl)carbonyl]-1H-pyrazol-3-yl)-1-(naphthalen-2-ylmethyl)-1,2-dihydropyridin-2-one], the IC50 was under 100 nM.
Take `COc1ccccc1C(=O)n1nc(-c2cccn(Cc3ccccn3)c2=O)cc1NCc1ccc(Cl)s1` [Cmpd 139, 3-(5-[(5-chlorothiophen-2-yl)methyl]amino-1-[(2-methoxyphenyl)carbonyl]-1H-pyrazol-3-yl)-1-(pyridin-2-ylmethyl)-1,2-dihydropyridin-2-one]: the IC50 was under 100 nM.
`COc1ccccc1C(=O)n1nc(-c2cccn(Cc3ccncc3)c2=O)cc1NCc1ccc(Cl)s1` [Cmpd 141, 3-(5-[(5-chlorothiophen-2-yl)methyl]amino-1-[(2-methoxyphenyl)carbonyl]-1H-pyrazol-3-yl)-1-(pyridin-4-ylmethyl)-1,2-dihydropyridin-2-one] returned an IC50 of under 100 nM.
As to `COc1ccccc1C(=O)n1nc(-c2cccn(Cc3ncccn3)c2=O)cc1NCc1ccc(Cl)s1` [Cmpd 142, 3-(5-[(5-chlorothiophen-2-yl)methyl]amino-1-[(2-methoxyphenyl)carbonyl]-1H-pyrazol-3-yl)-1-(pyrimidin-2-ylmethyl)-1,2-dihydropyridin-2-one], the IC50 was under 100 nM.
To `COc1ccccc1C(=O)n1nc(-c2cccn(Cc3cccs3)c2=O)cc1NCc1ccc(Cl)s1` [Cmpd 143, 3-(5-[(5-chlorothiophen-2-yl)methyl]amino-1-[(2-methoxyphenyl)carbonyl]-1H-pyrazol-3-yl)-1-(thiophen-2-ylmethyl)-1,2-dihydropyridin-2-one] belongs under 100 nM; to `COc1ccccc1C(=O)n1nc(-c2cccn(Cc3ccsc3)c2=O)cc1NCc1ccc(Cl)s1` [Cmpd 144, 3-(5-[(5-chlorothiophen-2-yl)methyl]amino-1-[(2-methoxyphenyl)carbonyl]-1H-pyrazol-3-yl)-1-(thiophen-3-ylmethyl)-1,2-dihydropyridin-2-one], under 100 nM.
The compound `COc1ccccc1C(=O)n1nc(-c2cccn(CCN3CCOCC3)c2=O)cc1NCc1ccc(Cl)s1` [Cmpd 146, 3-(5-[(5-chlorothiophen-2-yl)methyl]amino-1-[(2-methoxyphenyl)carbonyl]-1H-pyrazol-3-yl)-1-[2-(morpholin-4-yl)ethyl]-1,2-dihydropyridin-2-one] displayed an IC50 of under 100 nM.
As to `COc1ccccc1C(=O)n1nc(-c2cccn(C)c2=O)cc1NCc1ccc(Cl)s1` [Cmpd 147, 3-(5-[(5-chlorothiophen-2-yl)methyl]amino-1-[(2-methoxyphenyl)carbonyl]-1H-pyrazol-3-yl)-1-methyl-1,2-dihydropyridin-2-one], the IC50 is under 100 nM.
